Data as given in patent publication US9169205B2, “Pyrrolidine derivatives, pharmaceutical compositions and uses thereof” (Boehringer Ingelheim International GmbH, priority 2012, dated 2015).

Target: human ACC2 (Homo sapiens (Human), UniProt O00763)
Experiment: ACC2 assay (spectrophotometric 384 well assay, NADH-linked kinetic method)
Format: biochemical
Settings: hACC2 construct lacking 128 N-terminal amino acids, 25° C., 340 nm
Procedure: Spectrophotometric 384 Well Assay
Malonyl CoA formation by acetyl CoA carboxylases is stoichometrically linked to the consumption of ATP. ACC2 activity is measured in a NADH-linked kinetic method measuring ADP generated during the ACC reaction using a coupled lactate dehydrogenase/pyruvate kinase reaction.
The protein is then expressed in insect cells using a baculoviral expression system. Protein purification is performed by anion exchange.
All compounds are dissolved in dimethyl sulfoxide (DMSO) to a concentration of 10 mM.
The enzymatic reaction is then started by addition of a mixture of NADH, acetyl Coenzyme A (both 200 μM f.c.) and ATP (500 uM f.c.). The decrease of the optical density (slope S) is then determined at 25° C. at a wavelength of 340 nm over 15 minutes in a spectrophotometric reader.
Each assay microtiter plate contains wells with vehicle instead of compound as controls for the non-inhibited enzyme (100% CTL; ‘HIGH’) and wells without acetyl-CoA as controls for non-specific NADH degradation (0% CTL; ‘LOW’).

Chain of human ACC2 (O00763 129-2458): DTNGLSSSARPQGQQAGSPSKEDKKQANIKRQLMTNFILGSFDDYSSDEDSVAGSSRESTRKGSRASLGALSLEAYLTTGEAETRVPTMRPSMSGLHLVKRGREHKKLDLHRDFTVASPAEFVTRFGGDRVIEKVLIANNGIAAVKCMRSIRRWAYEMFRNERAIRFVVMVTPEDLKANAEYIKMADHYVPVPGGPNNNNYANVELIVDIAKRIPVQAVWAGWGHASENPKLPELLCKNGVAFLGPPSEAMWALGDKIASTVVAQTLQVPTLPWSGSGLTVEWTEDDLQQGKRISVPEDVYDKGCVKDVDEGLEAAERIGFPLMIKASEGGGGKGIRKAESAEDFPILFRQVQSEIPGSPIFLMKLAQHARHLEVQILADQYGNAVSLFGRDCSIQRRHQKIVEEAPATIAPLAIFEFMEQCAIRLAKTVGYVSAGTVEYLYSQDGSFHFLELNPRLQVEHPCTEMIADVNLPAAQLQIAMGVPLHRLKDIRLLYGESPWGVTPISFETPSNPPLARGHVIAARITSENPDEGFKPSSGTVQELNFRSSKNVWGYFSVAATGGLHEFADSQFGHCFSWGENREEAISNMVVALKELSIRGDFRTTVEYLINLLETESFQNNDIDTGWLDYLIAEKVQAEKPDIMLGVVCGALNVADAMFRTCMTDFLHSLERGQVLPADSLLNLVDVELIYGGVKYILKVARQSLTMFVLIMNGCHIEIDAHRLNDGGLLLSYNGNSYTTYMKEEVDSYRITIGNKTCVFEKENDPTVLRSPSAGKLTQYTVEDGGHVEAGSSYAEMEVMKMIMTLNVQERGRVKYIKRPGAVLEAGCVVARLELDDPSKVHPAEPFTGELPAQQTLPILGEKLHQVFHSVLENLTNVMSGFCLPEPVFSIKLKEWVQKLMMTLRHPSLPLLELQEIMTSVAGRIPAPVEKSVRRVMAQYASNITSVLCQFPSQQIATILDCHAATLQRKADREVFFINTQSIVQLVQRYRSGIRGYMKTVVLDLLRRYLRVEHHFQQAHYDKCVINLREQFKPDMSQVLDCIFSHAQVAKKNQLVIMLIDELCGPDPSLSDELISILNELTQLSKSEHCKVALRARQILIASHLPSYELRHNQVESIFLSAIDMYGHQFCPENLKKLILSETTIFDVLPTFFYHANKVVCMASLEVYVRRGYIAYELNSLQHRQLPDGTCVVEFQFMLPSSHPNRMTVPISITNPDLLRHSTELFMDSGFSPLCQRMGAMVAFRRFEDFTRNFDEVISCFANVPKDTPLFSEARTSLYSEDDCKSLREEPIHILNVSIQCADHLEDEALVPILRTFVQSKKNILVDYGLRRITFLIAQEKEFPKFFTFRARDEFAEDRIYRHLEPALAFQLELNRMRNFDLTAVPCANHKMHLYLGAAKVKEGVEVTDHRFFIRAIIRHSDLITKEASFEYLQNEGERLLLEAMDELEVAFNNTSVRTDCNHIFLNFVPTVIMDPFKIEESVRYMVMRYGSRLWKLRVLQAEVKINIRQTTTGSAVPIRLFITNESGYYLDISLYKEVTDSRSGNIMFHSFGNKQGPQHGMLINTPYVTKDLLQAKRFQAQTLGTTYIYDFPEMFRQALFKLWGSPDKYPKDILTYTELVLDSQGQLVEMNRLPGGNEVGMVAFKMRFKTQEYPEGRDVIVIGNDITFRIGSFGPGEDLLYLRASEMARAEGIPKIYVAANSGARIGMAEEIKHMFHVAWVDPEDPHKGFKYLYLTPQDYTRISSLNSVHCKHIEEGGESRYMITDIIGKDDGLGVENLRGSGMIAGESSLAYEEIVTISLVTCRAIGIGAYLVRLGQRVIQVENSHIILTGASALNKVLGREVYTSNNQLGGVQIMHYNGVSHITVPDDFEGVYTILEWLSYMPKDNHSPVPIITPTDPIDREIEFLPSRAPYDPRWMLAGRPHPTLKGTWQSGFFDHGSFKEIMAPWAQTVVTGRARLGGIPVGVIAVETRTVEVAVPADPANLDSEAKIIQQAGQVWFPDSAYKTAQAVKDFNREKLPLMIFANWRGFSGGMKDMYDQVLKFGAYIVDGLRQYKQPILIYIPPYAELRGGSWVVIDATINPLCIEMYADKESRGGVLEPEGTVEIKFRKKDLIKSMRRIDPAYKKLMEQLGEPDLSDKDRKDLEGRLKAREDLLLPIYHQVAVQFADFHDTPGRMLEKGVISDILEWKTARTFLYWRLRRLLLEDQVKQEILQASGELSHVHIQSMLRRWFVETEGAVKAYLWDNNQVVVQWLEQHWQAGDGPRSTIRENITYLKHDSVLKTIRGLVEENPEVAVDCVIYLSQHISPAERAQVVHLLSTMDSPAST

Row | IC50 [nM] | SMILES
1 | 175 | CO[C@@H]1CN(c2ccc(OCC3CC3)cc2)CC1Oc1ccc([C@H](C)NC(C)=O)cc1 (some centres unmarked) [Example 1.51]
2 | 445 | C[C@H](NC(=O)c1c[nH]nc1C(F)(F)F)c1ccc(O[C@@H]2CCN(c3ccc(OCC4CC4)cc3)C2)cc1 [Example 2.48]
3 | 411 | CCC(=O)N[C@@H](C)c1ccc(O[C@@H]2CCN(c3ccc(OC4CC4)cc3C)C2)cc1 [Example 2.62]
4 | 25 | CC(=O)N[C@@H](C)c1ccc(OC2CCN(c3ccc(OCC4CC4(F)F)cc3)C2)cc1 (some centres unmarked) [Example 1.16]
5 | 54 | CC(=O)N[C@@H](C)c1ccc(O[C@@H]2CCN(c3ccc(OCC4CC4)cc3)C2)cc1 [Example 1.1, N—((S)-1-(4-((R)-1-(4-(Cyclopropylmethoxy)phenyl)pyrrolidin-3-yloxy)phenyl)ethyl)-acetamide]
6 | 204 | CCOc1cccc(N2CC[C@@H](Oc3ccc([C@H](C)NC(C)=O)cc3)C2)c1 [Example 1.5]
7 | 417 | C[C@H](NC(=O)c1cn(C)nc1C#N)c1ccc(O[C@@H]2CCN(c3ccc(OCC4CC4)cc3)C2)cc1 [Example 2.56]
8 | 559 | COc1ccc(N2CCC(Oc3ccc([C@H](C)NC(C)=O)cc3)C2)c(F)c1 (some centres unmarked) [Example 1.22]
9 | 87 | CC(=O)N[C@@H](C)c1ccc(OC2CCN(c3ccc(OCC4CC4)c(F)c3)C2)cc1 (some centres unmarked) [Example 1.100]
10 | 198 | C[C@H](NC(=O)N1CCOCC1)c1ccc(OC2CCN(c3ccc(OCC4CC4)cc3)C2)cc1 (some centres unmarked) [Example 3.5]
11 | 440 | CC(=O)N[C@@H](C)c1ccc(OC2CCN(c3ccc(Oc4cnccn4)cc3)C2)cc1 (some centres unmarked) [Example 1.69]
12 | 231 | CC(=O)N[C@@H](C)c1ccc(OC2CCN(c3ccc(OC4CC4)cc3C)C2)nc1 (some centres unmarked) [Example 1.103]
13 | 885 | C[C@H](NC(=O)c1cnn2ccn(C)c12)c1ccc(O[C@@H]2CCN(c3ccc(OCC4CC4)cc3)C2)cc1 [Example 2.49]
14 | 204 | CC(=O)N[C@@H](C)c1ccc(OC2CCN(c3cccc(Cl)c3)C2)cc1 (some centres unmarked) [Example 1.53]
15 | 373 | C[C@H](NC(=O)C1CC1)c1ccc(O[C@@H]2CCN(c3ccc(OCC4CC4)cc3)C2)cc1 [Example 8.1, N—((S)-1-(4-((R)-1-(4-(Cyclopropylmethoxy)phenyl)pyrrolidin-3-yloxy)phenyl)-ethyl)-cyclopropanecarboxamide]
16 | 804 | CC(=O)N[C@@H](C)c1ccc(OC2CCN(c3ccc(OCC4(C(F)(F)F)CC4)cc3)C2)cc1 (some centres unmarked) [Example 1.81]
17 | 218 | CCNC(=O)N[C@@H](C)c1ccc(OC2CCN(c3ccc(OC(C)C)cc3)C2)cc1 (some centres unmarked) [Example 3.10]
18 | 1780 | CC(=O)N[C@@H](C)c1ccc(OC2CCN(c3ccc(OCC4CC4)cc3)C2)cn1 (stereo partly drawn) [Example 7.1, N—((S)-1-(5-((R)-1-(4-(Cyclopropylmethoxy)phenyl)pyrrolidin-3-ylox)pyridin-2-yl)ethyl)acetamide]
19 | 335 | CCOc1ccc(N2CCC(Oc3ccc([C@H](C)NC(C)=O)cc3)C2)c(F)c1F (some centres unmarked) [Example 1.62]
20 | 71 | C[C@H](NC(=O)c1ccon1)c1ccc(O[C@@H]2CCN(c3ccc(OCC4CC4)cc3)C2)cc1 [Example 2.34]
21 | 793 | CC(O)C(=O)N[C@@H](C)c1ccc(O[C@@H]2CCN(c3ccc(OCC4CC4)cc3)C2)cc1 (some centres unmarked) [Example 2.33]
22 | 671 | C[C@H](NC(=O)C1CCC(=O)N1)c1ccc(O[C@@H]2CCN(c3ccc(OCC4CC4)cc3)C2)cc1 (some centres unmarked) [Example 2.2]
23 | 560 | COCCOc1ccc(N2CCC(Oc3ccc([C@H](C)NC(C)=O)cc3)C2)cc1 (some centres unmarked) [Example 4.4]
24 | 165 | CCN(C)C(=O)N[C@@H](C)c1ccc(OC2CCN(c3ccc(OCC4CC4)cc3)C2)cc1 (some centres unmarked) [Example 3.4]
25 | 805 | C[C@H](NC(=O)c1cnn(CC(F)F)c1)c1ccc(O[C@@H]2CCN(c3ccc(OCC4CC4)cc3)C2)cc1 [Example 2.52]
26 | 1680 | CCOC1CN(c2ccc(OCC3CC3)cc2)CC1Oc1ccc([C@H](C)NC(C)=O)cc1 (some centres unmarked) [Example 1.74]

Row | IC50 [nM] | SMILES
27 | 200 | C[C@H](NC(=O)c1ccnnc1)c1ccc(O[C@@H]2CCN(c3ccc(OCC4CC4)cc3)C2)cc1 [Example 2.36]
28 | 465 | C[C@H](NC(=O)C(C)(C)C#N)c1ccc(O[C@@H]2CCN(c3ccc(OCC4CC4)cc3)C2)cc1 [Example 2.39]
29 | 864 | C[C@H](NC(=O)C1(C(=O)N(C)C)CC1)c1ccc(O[C@@H]2CCN(c3ccc(OCC4CC4)cc3)C2)cc1 [Example 2.16]
30 | 397 | Cc1cc(OC2CC2)ccc1N1CC[C@@H](Oc2ccc([C@H](C)NC(=O)c3cnco3)cc2)C1 [Example 2.61]
31 | 121 | C[C@H](NC(=O)Cc1cncnc1)c1ccc(O[C@@H]2CCN(c3ccc(OCC4CC4)cc3)C2)cc1 [Example 2.7]
32 | 17 | C[C@H](NC(=O)c1cncs1)c1ccc(O[C@@H]2CCN(c3ccc(OCC4CC4)cc3)C2)cc1 [Example 2.38]
33 | 160 | C[C@H](NC(=O)c1cnc(N)s1)c1ccc(O[C@@H]2CCN(c3ccc(OCC4CC4)cc3)C2)cc1 [Example 2.43]
34 | 65 | C[C@H](NC(=O)c1cnn(C)c1N)c1ccc(O[C@@H]2CCN(c3ccc(OCC4CC4)cc3)C2)cc1 [Example 2.50]
35 | 558 | CC(=O)N[C@@H](C)c1ccc(OC2CCN(c3ccc4c(c3F)OCO4)C2)cc1 (some centres unmarked) [Example 1.72]
36 | 199 | CC(=O)NC(C)c1ccc(OC2CCN(c3ccc(OCC4CC4)cc3)C2)c(F)c1 (centres unmarked) [Example 7.3]
37 | 64 | CC(=O)N[C@@H](C)c1ccc(OC2CCN(c3ccc(OCC4CC4(F)F)c(F)c3)C2)cc1 (some centres unmarked) [Example 1.98]
38 | 55 | CCNC(=O)N[C@@H](C)c1ccc(OC2CCN(c3ccc(OCC4CC4)cc3)C2)cc1 (some centres unmarked) [Example 3.2]
39 | 385 | Cc1c(C(=O)N[C@@H](C)c2ccc(O[C@@H]3CCN(c4ccc(OCC5CC5)cc4)C3)cc2)cnn1C [Example 2.47]
40 | 74 | C[C@H](NC(=O)N(C)C)c1ccc(O[C@@H]2CCN(c3ccc(OCC4CC4)cc3)C2)cc1 [Example 3.1, 3-((S)-1-(4-((R)-1-(4-(cyclopropylmethoxy)phenyl)pyrrolidin-3-yloxy)phenyl)ethyl)-1,1-dimethylurea]
41 | 56 | C[C@H](NC(=O)Nc1ccon1)c1ccc(OC2CCN(c3ccc(OCC4CC4)cc3)C2)cc1 (some centres unmarked) [Example 3.7]
42 | 122 | C[C@H](NC(=O)c1c[nH]nc1C#N)c1ccc(O[C@@H]2CCN(c3ccc(OCC4CC4)cc3)C2)cc1 [Example 2.57]
43 | 124 | CC(C)Oc1ccc(N2CC[C@@H](Oc3ccc([C@H](C)NC(=O)C(F)(F)F)cc3)C2)cc1 [Example 2.19]
44 | 138 | Cc1cc(CC(=O)N[C@@H](C)c2ccc(O[C@@H]3CCN(c4ccc(OCC5CC5)cc4)C3)cc2)on1 [Example 2.9]
45 | 360 | CC(=O)N[C@@H](C)c1ccc(OC2CCN(c3ccc(OCC(F)F)cc3)C2)cc1 (some centres unmarked) [Example 4.6]
46 | 899 | CC(=O)N[C@@H](C)c1ccc(OC2CCN(c3ccc(Cl)cc3)C2)cc1 (some centres unmarked) [Example 1.12]
47 | 132 | C[C@H](NC(=O)c1cnn(C)c1)c1ccc(O[C@@H]2CCN(c3ccc(OCC4CC4)cc3)C2)cc1 [Example 2.11]
48 | 546 | CC(=O)N[C@@H](C)c1ccc(OC2CCN(c3ccc(OCC(F)(F)F)cc3)C2)cc1 (some centres unmarked) [Example 1.78]
49 | 108 | CC(=O)N[C@@H](C)c1ccc(OC2CCN(c3ccc(OC4CC4)cc3)C2)cc1 (some centres unmarked) [Example 1.6]
50 | 566 | Cc1cc(OC2CC2)ccc1N1CCC(Oc2ccc([C@H](C)NC(=O)N(C)C)cc2)C1 (some centres unmarked) [Example 1.68]
51 | 504 | C[C@H](NC(=O)N(C)Cc1ccncn1)c1ccc(OC2CCN(c3ccc(OCC4CC4)cc3)C2)cc1 (some centres unmarked) [Example 3.6]
52 | 346 | COc1cc(C(=O)N[C@@H](C)c2ccc(O[C@@H]3CCN(c4ccc(OCC5CC5)cc4)C3)cc2)on1 [Example 2.17]

Row | SMILES | IC50 [nM]
53 | CC(=O)N[C@@H](C)c1ccc(OC2CCN(c3ccc(OCc4ccccc4)cc3)C2)cc1 (some centres unmarked) [Example 4.5] | 660
